Earlier results as cited in patent US20230304100A1, “METHOD OF PREDICTING THERAPEUTIC RESPONSE AND PROGNOSIS OF METASTATIC BREAST CANCER TO CHEMOTHERAPEUTIC AGENTS, AND TREATING METASTATIC BREAST CANCER” (Samsung Life Public Welfare Foundation, priority 2021, published 2023).

System: premenopausal HR+/HER2− metastatic breast cancer patients
Settings: Young-PEARL study

In the case of CCCCCOC(=O)Nc1nc(=O)n([C@@H]2O[C@H](C)[C@@H](O)[C@H]2O)cc1F [capecitabine], the “median progression-free survival (PFS)” value is given as 14.4 months.
